Measurements as given in patent US7220721B1, “Exendin agonist peptides” (Amylin Pharmaceuticals, Inc., priority 1997, dated 2007).

How the values were obtained:
C57BLKS/J-m-db mice = test: Determination of blood glucose levels in db/db mice; format: in vivo; details: percent decrease in plasma glucose from baseline one hour after subcutaneous injection of 1 μg
cyclase (membranes) = test: Cyclase activation study (cAMP SPA immunoassay); format: biochemical; details: cAMP in supernatant after 20 minutes incubation at 37° C. of membranes and peptides
Description: GLP-1[7–36]NH2 (GLP-1) was purchased from Bachem (Torrance, Calif.). All other peptides were prepared using synthesis methods such as those described therein. All chemicals were of the highest commercial grade. The cAMP SPA immunoassay was purchased from Amersham. The radioligands were purchased from New England Nuclear (Boston, Mass.). […] Cells were grown at 37° C. and 5% CO2/95% humidified air and medium was replaced every 2 to 3 days. Cells were grown to confluence then harvested and homogenized using on a Polytron homogenizer. Cell homogenates were stored frozen at −70° C. until used. Assay buffer contained 10 μM GTP, 0.75 mM ATP, 2.5 mM MgCl21 0.5 mM phosphocreatine, 12.5 U/ml creatine kinase, 0.4 mg/ml aprotinin, 1 μM IBMX in 50 mM HEPES, pH 7.4. Membranes and peptides were combined in […] of assay buffer in 96 well filter-bottom plates (Millipore Corp., Bedford, Mass.). […] Supernatant cAMP contents were quantitated by SPA immunoassay. […] The biological activity of a particular sample was expressed as an EC50 value, calculated as described above.

[1] = target: GLP-1 receptor (on RINm5f membranes) (UniProt P32301)
Chain of GLP-1 receptor (on RINm5f membranes) (P32301 22-463 limits assumed): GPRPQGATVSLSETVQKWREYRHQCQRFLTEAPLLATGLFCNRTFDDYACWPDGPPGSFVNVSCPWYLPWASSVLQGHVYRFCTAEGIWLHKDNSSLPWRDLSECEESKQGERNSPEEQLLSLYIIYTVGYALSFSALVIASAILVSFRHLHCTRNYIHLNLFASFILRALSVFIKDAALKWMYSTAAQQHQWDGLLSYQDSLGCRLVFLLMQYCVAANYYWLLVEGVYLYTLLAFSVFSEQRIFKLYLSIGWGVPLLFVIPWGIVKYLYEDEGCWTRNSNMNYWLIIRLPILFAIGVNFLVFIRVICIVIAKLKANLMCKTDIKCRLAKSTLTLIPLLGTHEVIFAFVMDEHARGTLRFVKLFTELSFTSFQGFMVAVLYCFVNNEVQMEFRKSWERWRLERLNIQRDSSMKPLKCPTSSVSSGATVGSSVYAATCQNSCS

| EC50 (cyclase (membranes)) [µM] | Compound | % drop in glucose (C57BLKS/J-m-db mice) [%] | IC50 [1] [µM] |
| --- | --- | --- | --- |
| > 10 | CC[C@H](C)[C@H](NC(=O)[C@H](Cc1ccccc1)NC(=O)[C@H](CC(C)C)NC(=O)[C@H](CCCNC(=N)N)NC(=O)[C@@H](NC(=O)[C@H](C)NC(=O)[C@H](CCC(=O)O)NC(=O)[C@H](CCC(=O)O)NC(=O)[C@H](CCC(=O)O)NC(=O)[C@H](CC(C)C)NC(=O)[C@H](CCC(N)=O)NC(=O)[C@H](CCCCN)NC(=O)[C@H](CO)NC(=O)[C@H](CC(C)C)NC(=O)[C@H](CC(=O)O)NC(=O)[C@H](CO)NC(=O)[C@@H](NC(=O)[C@H](Cc1ccccc1)NC(=O)[C@@H](NC(=O)[C@H](C)NC(=O)[C@H](CCC(=O)O)NC(=O)CNC(=O)[C@@H](N)Cc1c[nH]cn1)[C@@H](C)O)[C@@H](C)O)C(C)C)C(=O)N[C@@H](CCC(=O)O)C(=O)N[C@@H](Cc1ccccc1)C(=O)N[C@@H](CC(C)C)C(=O)N[C@@H](CCCCN)C(=O)N[C@@H](CC(N)=O)C(N)=O [Compound 3] | 32 | – |
| > 10 | CC[C@H](C)[C@H](NC(=O)[C@H](Cc1ccccc1)NC(=O)[C@H](CC(C)C)NC(=O)[C@H](CCCNC(=N)N)NC(=O)[C@@H](NC(=O)[C@H](C)NC(=O)[C@H](CCC(=O)O)NC(=O)[C@H](CCC(=O)O)NC(=O)[C@H](CCC(=O)O)NC(=O)[C@H](CC(C)C)NC(=O)[C@H](CCC(N)=O)NC(=O)[C@H](CCCCN)NC(=O)[C@H](CO)NC(=O)[C@H](CC(C)C)NC(=O)[C@H](C)NC(=O)[C@H](CO)NC(=O)[C@@H](NC(=O)[C@H](Cc1ccccc1)NC(=O)[C@@H](NC(=O)CNC(=O)[C@H](CCC(=O)O)NC(=O)CNC(=O)[C@@H](N)Cc1c[nH]cn1)[C@@H](C)O)[C@@H](C)O)C(C)C)C(=O)N[C@@H](CCC(=O)O)C(=O)N[C@@H](Cc1ccccc1)C(=O)N[C@@H](CC(C)C)C(=O)N[C@@H](CCCCN)C(=O)N[C@@H](CC(N)=O)C(N)=O [Compound 4] | 42 | – |

More lines, now with the values behind:

| Compound | EC50 (cyclase (membranes)) [µM] | % drop in glucose (C57BLKS/J-m-db mice) [%] | IC50 [1] [µM] |
| --- | --- | --- | --- |
| CC[C@H](C)[C@H](NC(=O)[C@H](Cc1ccccc1)NC(=O)[C@H](CC(C)C)NC(=O)[C@H](CCCNC(=N)N)NC(=O)[C@@H](NC(=O)[C@H](C)NC(=O)[C@H](CCC(=O)O)NC(=O)[C@H](CCC(=O)O)NC(=O)[C@H](CCC(=O)O)NC(=O)[C@H](CC(C)C)NC(=O)[C@H](CCC(N)=O)NC(=O)[C@H](CCCCN)NC(=O)[C@H](CO)NC(=O)[C@H](CC(C)C)NC(=O)[C@H](CC(=O)O)NC(=O)[C@H](CO)NC(=O)[C@@H](NC(=O)[C@H](Cc1ccccc1)NC(=O)[C@@H](NC(=O)CNC(=O)[C@H](CCC(=O)O)NC(=O)CNC(=O)[C@H](C)N)[C@@H](C)O)[C@@H](C)O)C(C)C)C(=O)N[C@@H](CCC(=O)O)C(=O)N[C@@H](Cc1ccccc1)C(=O)N[C@@H](CC(C)C)C(=O)N[C@@H](CCCCN)C(=O)N[C@@H](CC(N)=O)C(N)=O [Compound 1] | > 1 | 40 | – |
| CC[C@H](C)[C@H](NC(=O)[C@H](Cc1ccccc1)NC(=O)[C@H](CC(C)C)NC(=O)[C@H](CCCNC(=N)N)NC(=O)[C@@H](NC(=O)[C@H](C)NC(=O)[C@H](CCC(=O)O)NC(=O)[C@H](CCC(=O)O)NC(=O)[C@H](CCC(=O)O)NC(=O)[C@H](CC(C)C)NC(=O)[C@H](CCC(N)=O)NC(=O)[C@H](CCCCN)NC(=O)[C@H](CO)NC(=O)[C@H](CC(C)C)NC(=O)[C@H](CC(=O)O)NC(=O)[C@H](CO)NC(=O)[C@@H](NC(=O)[C@H](Cc1ccccc1)NC(=O)[C@@H](NC(=O)CNC(=O)[C@H](C)NC(=O)CNC(=O)[C@@H](N)Cc1c[nH]cn1)[C@@H](C)O)[C@@H](C)O)C(C)C)C(=O)N[C@@H](CCC(=O)O)C(=O)N[C@@H](Cc1ccccc1)C(=O)N[C@@H](CC(C)C)C(=O)N[C@@H](CCCCN)C(=O)N[C@@H](CC(N)=O)C(N)=O [Compound 2] | > 10 | 41 | – |
| Exendin-4 [SEQ. ID. NO. 2] (peptide) | – | – | 0.0007 |
